Read-outs that look alike come from different tables or passages of the source.
Tests used:
LDL receptor [1] = assay: LDL receptor expression in liver sections of hLDLR Tg mice, fluorescence staining; assay type: in vivo; conditions: Tg mouse pretreated with 0.5 mg, then inoculated with HCV
HCV [2] = assay type: in vivo, mouse
HCV [3] = assay type: cell-based, hepatitis C virus; design: key to Endocytosis of 1 × 10^6 gE HCV from each fraction intensity of staining: ++: Moderately positive; +: Weakly positive
LDL receptor [4] = target: T1, LDL receptor (Homo sapiens, UniProt P01130); assay: DiI-LDL endocytosis (uptake) by cultured cells, flow cytometry / fluorescence microscopy; assay type: cell-based; conditions: for Mean fluorescence: DiI-LDL treatment
T1 construct: endogenous in cells; host or cells: G4 B-lymphocyte line (human-mouse heterohybridoma fused with patient B cells), HepG2 hepatoma cells
Experimental: LDL Receptor Assays: Cells were cultured in Roswell Park Memorial Institute (RPMI) medium supplemented either with 10% BVDV-free bovine calf serum or with RPMI medium supplemented with 10% lipoprotein-deficient BVDV-free medium to upregulate expression of the LDL receptor. The cells were then washed twice with phosphate-buffered saline (PBS), pH 7.2. Cytospin preparations were made, fixed with acetone, blocked with 5% normal mouse serum, and the LDL receptor visualized by incubating the slides with 5 μg/ml purified IgG 2a monoclonal anti-LDL receptor antibody followed by a 1:50 dilution of fluorescein (FITC)-labeled goat anti-mouse [F(ab)′2] second antibody (Jackson Immunoresearch, West Grove, Pa.).
The cells were washed twice with cold PBS and fixed with 1% buffered paraformaldehyde, and cytospin preparations were made for fluorescent microscopic studies or cells in suspension were analyzed by flow cytometry. Flow cytometric analysis was performed using the Epic XL-MCL cytometer (Coulter Corp., Miami, Fla.) using a 575 BP filter. Nonspecific binding of DiI-LDL was determined using DiI-LDL treated with cyclohexanedione and was subtracted from the DiI-LDL binding to give specific DiI-LDL binding to cultured cells.

[5] = density gradient fractions of HCV serum, ISH

T1 sequence (P01130 22-860): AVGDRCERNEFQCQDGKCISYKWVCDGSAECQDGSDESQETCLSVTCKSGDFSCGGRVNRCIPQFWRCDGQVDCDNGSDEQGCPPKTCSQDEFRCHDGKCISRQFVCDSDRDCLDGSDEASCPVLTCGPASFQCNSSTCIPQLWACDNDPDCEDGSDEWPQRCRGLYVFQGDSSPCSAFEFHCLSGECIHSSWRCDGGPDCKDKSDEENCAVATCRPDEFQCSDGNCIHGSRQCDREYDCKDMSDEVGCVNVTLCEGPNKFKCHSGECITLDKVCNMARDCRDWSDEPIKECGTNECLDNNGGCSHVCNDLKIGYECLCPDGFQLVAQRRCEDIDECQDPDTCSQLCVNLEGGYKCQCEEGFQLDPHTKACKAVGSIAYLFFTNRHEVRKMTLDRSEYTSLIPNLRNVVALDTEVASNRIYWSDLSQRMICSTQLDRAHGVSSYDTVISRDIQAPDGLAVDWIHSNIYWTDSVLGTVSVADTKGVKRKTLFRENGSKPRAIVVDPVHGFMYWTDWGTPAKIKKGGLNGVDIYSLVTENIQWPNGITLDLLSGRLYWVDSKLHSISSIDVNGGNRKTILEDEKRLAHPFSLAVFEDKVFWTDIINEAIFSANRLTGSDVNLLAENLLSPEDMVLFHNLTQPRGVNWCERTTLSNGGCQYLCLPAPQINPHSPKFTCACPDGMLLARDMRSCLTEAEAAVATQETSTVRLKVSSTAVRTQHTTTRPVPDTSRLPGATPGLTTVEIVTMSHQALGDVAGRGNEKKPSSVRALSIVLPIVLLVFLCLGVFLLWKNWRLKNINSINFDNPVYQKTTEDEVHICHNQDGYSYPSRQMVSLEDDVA

CC(C)c1c(C(=O)Nc2ccccc2)c(-c2ccccc2)c(-c2ccc(F)cc2)n1CC[C@@H](O)C[C@@H](O)CC(=O)O [atorvastatin]
Modulation of LDL receptor (fluorescence staining) (LDL receptor [1]): upregulation of the LDL receptor
Quantitative HCV of the liver (HCV [2]; Tg mouse pretreated with 0.5 mg, control mouse 43): 163 HCV gE per mg liver

heparin sulfate
Inhibition of endocytosis of HCV (HCV [3]; 25 units/ml): inhibited

soluble LDL receptor: soluble LDL receptor (SEQ ID NO:1)
Inhibition of endocytosis of HCV (HCV [3]; Daudi cells, pretreatment 30 minutes at 37° C., HCV 2 hours at 37° C.): completely inhibits

DiI-LDL: LDL labeled with 1,1′-dioctadecyl-3,3,3′,3′-tetramethylindocarbocyanine iodine (DiI)
Mean fluorescence (LDL receptor [4]; G4 cells, lipoprotein deficient medium (upregulated LDL receptor)): 16 ± 7
Mean fluorescence (LDL receptor [4]; G4 cells, routine culture medium (RPMI with 10% fetal bovine serum)): 4 ± 2.0
Mean fluorescence (LDL receptor [4]; HepG2 cells, routine culture medium): 16 ± 5

LDL: low density lipoprotein, d=1.019-1.063 g/ml, from normal sera or purchased from Cortex
Endocytosis of 5 μg DiI-labeled fraction mean fluorescence (log scale) (LDL receptor [4]; density gradient fractions of HCV serum): 9.98
Inhibition of uptake of DiI-LDL (LDL receptor [4]; upregulated G4 cells, 5 μg DiI-LDL, excess unlabeled LDL): completely inhibited
Restoration of endocytosis of "free" HCV (HCV [3]): restoration of endocytosis
Inhibition of endocytosis of HCV (competitive) (HCV [3]; HepG2 or B cells (G4 and E11), 25-100 μg/ml): completely inhibited
Endocytosis of 1 × 10^6 gE HCV from each fraction % cell positive (HCV [3]; [5]): 75%
Endocytosis of 1 × 10^6 gE HCV from each fraction intensity of staining (HCV [3]; [5]): +

O=C(O)CN(CCOCCOCCN(CC(=O)O)CC(=O)O)CC(=O)O [EGTA, ethylene glycol bis(β-aminoethyl ether)-N,N,N′,N′-tetraacetic acid]
Inhibition of endocytosis of HCV (HCV [3]): inhibited

5^th repeat peptide: 39 amino acid 5th repeat of the ligand binding domain of the LDL receptor, amino acids 193-231 of SEQ ID NO:1
Inhibition of endocytosis of HCV by hepatocytes (HCV [2]; hLDLR Tg mouse, 1 mg one hour prior to intraperitoneal HCV (5.0×10^6 gE)): completely inhibits

— US20110229482A1, “Method of inhibiting infection by HCV, other flaviviridae viruses, and any other virus that complexes to low density lipoprotein or to very low density lipoprotein in blood by preventing viral entry into a cell” (priority 2000, published 2011)
